Results reported in patent US9593305B2, “Differentiation of pluripotent stem cells” (Janssen Biotech, Inc., priority 2008, dated 2017).
“And” between values parts separate entries of the source, which are not always exact repeats. Identical values can stand only once.

Tested on: H1 human embryonic stem cells
Assay: Compounds and growth factors with low dose activin A (Example 9, Table 9)
Type: cell-based
Experimental: Clusters of H1 human embryonic stem cells were grown on reduced growth factor […]™ (Invitrogen; Cat #356231)-coated tissue culture plastic. Cells were passaged using collagenase (Invitrogen; Cat #17104-019) treatment and gentle scraping, washed to remove residual enzyme, and plated with even dispersal at a ratio of 1:1 (surface area) on reduced growth factor […]™-coated 96-well black plates (Packard ViewPlates; PerkinElmer; Cat #6005182) using volumes of 100 μl/well. Cells were allowed to attach as clusters and then recover log phase growth over a 1 to 3 day period, feeding daily with MEF conditioned medium supplemented with 8 ng/ml bFGF (R&D Systems; Cat #233-FB). Plates were maintained at 37° C., 5% CO2 in a humidified box throughout the duration of assay.
Stocks of growth factors purchased from R&D Systems were EGF (Cat #236-EG), FGF4 (Cat #235-F4), PDGF-A (Cat #221-AA), PDGF-D (Cat #1159-SB), PDGF-A/B (Cat #222-AB), VEGF (Cat #293-VE), and GDF-8 (Cat #788-08). Activin A was purchased from PeproTech (Cat #). Muscimol was purchased from Tocris (Cat #0289). All growth factors were solubilized in PBS with 0.1% BSA (Sigma; Cat #A7888) and stored frozen at −80° C. Muscimol was solubilized in 100% DMSO (Sigma; Cat #D2650) and stored frozen at −80° C. The compounds were available as 5 mM stocks in 96-well plate format, solubilized in 100% DMSO and stored at −80° C. The compounds were further diluted to an intermediate concentration of 0.2 mM in 50 mM HEPES (Invitrogen; Cat #15630-080), 20% DMSO and stored at 4° C. All growth factors and inhibitors were prepared in a deep well, 96-well polypropylene plate, diluted to 5× intermediate stocks in DMEM:F12 base medium at the beginning of assay and stored at 4° C.
A secondary screening assay was conducted, testing in triplicate and feeding on alternate days over the four-day assay timeframe. Assays were initiated by aspirating culture medium from each well followed by three washes in PBS to remove residual growth factors and serum. Test volumes of 80 μl per well were added back containing DMEM:F12 base medium (Invitrogen; Cat #11330-032) supplemented with 0.625% FCS (HyClone; Cat #SH30070.03), 25 ng/ml Wnt3a (R&D Systems), 12.5 ng/ml activin A, and 3.125 μM compound plus 20 μl 5× stock of growth factor or small molecule to yield a final concentration of 0.5% FCS, 20 ng/ml Wnt3a, 10 ng/ml activin A, and 2.5 μM compound. All remaining growth factors were tested at a final assay concentration of 50 ng/ml (EGF, FGF4, PDGF-A, PDGF-A/B, VEGF), with the exception of GDF-8 used at 25 ng/ml. Final assay concentration of muscimol was 20 μM. Positive control wells (100 μl/well) contained the same base medium supplemented with 0.5% FCS, 20 ng/ml Wnt3a and 10 ng/ml (low dose) or 100 ng/ml (high dose) activin A. Negative control wells (100 μl/well) contained the same base medium with 0.5% FCS and 20 ng/ml Wnt3a, omitting activin A.
Positive control wells (100 μl/well) contained the same base medium supplemented with 2% FCS and 10 ng/ml or 100 ng/ml activin A, omitting Wnt3a. Negative control wells (100 μl/well) contained the same base medium with 2% FCS, omitting both activin A and Wnt3a.
At the conclusion of four-days of culture, assay plates were washed twice with PBS, fixed with 4% paraformaldehyde (Alexis Biochemical; Cat #ALX-350-011) at room temperature for 20 minutes, then washed three times with PBS and permeabilized with 0.5% Triton X-100 (Sigma; Cat #T8760-2) for 20 minutes at room temperature. Cells were washed again three times with PBS and blocked with 4% chicken serum (Invitrogen; Cat #16110082) in PBS for 30 minutes at room temperature. Primary antibody (goat anti-human SOX17; R&D Systems; cat #AF1924) was diluted 1:100 in 4% chicken serum and added to each well for one hour at room temperature. […]

[1] = 10 ng/ml AA + compound + EGF + FGF4 + PDGF-A + Muscimol + Wnt3a
[2] = 10 ng/ml AA + compound + EGF + FGF4 + PDGF-A + VEGF + PDGF-D + Muscimol + GDF8 + Wnt3a
[3] = 10 ng/ml AA + compound + EGF + FGF4 + PDGF-AB + VEGF + Wnt3a
[4] = 10 ng/ml AA + compound + EGF + FGF4 + PDGF-AB + Wnt3a
[5] = 10 ng/ml AA + compound + EGF + FGF4 + Wnt3a
[6] = 10 ng/ml AA + compound + EGF + Wnt3a
[7] = 10 ng/ml AA + compound + FGF4 + Wnt3a
[8] = 10 ng/ml AA alone, no compound, no growth factors
[9] = 100 ng/ml AA alone, no compound, no growth factors

Row | Molecule | Cell Number, % of positive control [1] | Cell Number, Average Total Cell Number [1] | Sox17 Expression, % of positive control [1] | Sox17 Expression, Average Total Intensity [1] | Cell Number, % of positive control [2] | Cell Number, Average Total Cell Number [2] | Sox17 Expression, % of positive control [2] | Sox17 Expression, Average Total Intensity [2] | Cell Number, % of positive control [3] | Cell Number, Average Total Cell Number [3] | Sox17 Expression, % of positive control [3] | Sox17 Expression, Average Total Intensity [3] | Cell Number, % of positive control [4] | Cell Number, Average Total Cell Number [4] | Sox17 Expression, % of positive control [4] | Sox17 Expression, Average Total Intensity [4] | Cell Number, % of positive control [5] | Cell Number, Average Total Cell Number [5] | Sox17 Expression, % of positive control [5] | Sox17 Expression, Average Total Intensity [5] | also measured
1 | CCN1CC(=O)NCCCc2cncc(c2)-c2ncnc(n2)Nc2cc(Cl)cc(c2)C1 [Compound 35, 10-Chloro-14-ethyl-3,5,7,14,17,23,27-heptaazatetracyclo[19.3.1.1˜2,6˜0.1˜8,12]Theptacosa-1(25), 2(27), 3,5,8(26), 9,11,21,23-nonaen-16-one] | 62.29 % of positive control | 3820 | −1.46 % of positive control | −1.67E+06 | 41.14 % of positive control | 2522 | −4.25 % of positive control | −4.86E+06 | 56.74 % of positive control | 3479 | −3.46 % of positive control | −3.96E+06 | 53.21 % of positive control | 3263 | −3.99 % of positive control | −4.56E+06 | 44.10 % of positive control | 2704 | −3.65 % of positive control | −4.17E+06 | Cell Number, % of positive control [6]: 2.53 % of positive control; Cell Number, Average Total Cell Number [6]: 155; Sox17 Expression, % of positive control [6]: −6.84 % of positive control; Sox17 Expression, Average Total Intensity [6]: −7.82E+06; Cell Number, % of positive control [7]: 4.64 % of positive control; Cell Number, Average Total Cell Number [7]: 284; Sox17 Expression, % of positive control [7]: −6.59 % of positive control; Sox17 Expression, Average Total Intensity [7]: −7.54E+06; Cell Number, % of positive control (10 ng/ml AA + compound + Wnt3a): 2.83 % of positive control; Cell Number, Average Total Cell Number (10 ng/ml AA + compound + Wnt3a): 173; Sox17 Expression, % of positive control (10 ng/ml AA + compound + Wnt3a): −6.66 % of positive control; Sox17 Expression, Average Total Intensity (10 ng/ml AA + compound + Wnt3a): −7.61E+06
2 | Activin A: recombinant human activin A (PeproTech), TGF-beta family member |  |  |  |  |  |  |  |  |  |  |  |  |  |  |  |  |  |  |  |  | Cell Number, % of positive control [8]: 67.67 % of positive control and 100.00 % of positive control; Cell Number, Average Total Cell Number [8]: 5177 and 6132; Cell Number, % of positive control [9]: 100.00 % of positive control and 157.51 % of positive control; Cell Number, Average Total Cell Number [9]: 7650 and 9658; Sox17 Expression, % of positive control [9]: 100.00 % of positive control; Sox17 Expression, Average Total Intensity [9]: 1.11E+08 and 1.14E+08
3 | O=C1NCCCc2cncc(c2)-c2ncnc(n2)Nc2cccc(c2)CN2CCC1CC2 [Compound 22, 1,8,10,12,16,22,30-Heptaazapentacyclo[22.2.2.1-3,7˜0.1˜9,13˜1-14,18˜]hentriaconta-3(31), 4,6,9(30), 10,12,14(29), 15,17-nonaen-23-one] | 132.10 % of positive control | 8100 | 38.65 % of positive control | 4.42E+07 | 139.53 % of positive control | 8556 | 76.82 % of positive control | 8.78E+07 | 124.87 % of positive control | 7657 | 41.09 % of positive control | 4.70E+07 | 130.06 % of positive control | 7975 | 30.03 % of positive control | 3.43E+07 | 159.83 % of positive control | 9800 | 40.13 % of positive control | 4.59E+07 | Cell Number, % of positive control [6]: 81.55 % of positive control; Cell Number, Average Total Cell Number [6]: 5001; Sox17 Expression, % of positive control [6]: 24.45 % of positive control; Sox17 Expression, Average Total Intensity [6]: 2.80E+07; Cell Number, % of positive control [7]: 105.84 % of positive control; Cell Number, Average Total Cell Number [7]: 6490; Sox17 Expression, % of positive control [7]: 37.43 % of positive control; Sox17 Expression, Average Total Intensity [7]: 4.28E+07; Cell Number, % of positive control (10 ng/ml AA + compound + Wnt3a): 74.09 % of positive control; Cell Number, Average Total Cell Number (10 ng/ml AA + compound + Wnt3a): 4543; Sox17 Expression, % of positive control (10 ng/ml AA + compound + Wnt3a): 26.65 % of positive control; Sox17 Expression, Average Total Intensity (10 ng/ml AA + compound + Wnt3a): 3.05E+07
4 | CN1CCC(=O)NCCCNc2ncccc2-c2ncnc(n2)Nc2cccc(c2)C1 [Compound 39, 9-Methyl-2,3,4,5,7,8,9,10-octahydro-16H-17,21-(azeno)-11,15-(metheno)pyrido[3,2-g][1,3,5,9,13,17]hexaazacyclotricosin-6(1H)-one] | 37.64 % of positive control | 2879 | 3.24 % of positive control | 3.61E+06 | 75.00 % of positive control | 5738 | 19.24 % of positive control | 2.14E+07 | 33.08 % of positive control | 2531 | 2.53 % of positive control | 2.82E+06 | 39.07 % of positive control | 2989 | −0.02 % of positive control | −1.78E+04 | 9.59 % of positive control | 734 | −3.53 % of positive control | −3.93E+06 | Cell Number, % of positive control [6]: 2.75 % of positive control; Cell Number, Average Total Cell Number [6]: 211; Sox17 Expression, % of positive control [6]: −4.08 % of positive control; Sox17 Expression, Average Total Intensity [6]: −4.54E+06; Cell Number, % of positive control [7]: 6.81 % of positive control; Cell Number, Average Total Cell Number [7]: 521; Sox17 Expression, % of positive control [7]: −4.01 % of positive control; Sox17 Expression, Average Total Intensity [7]: −4.46E+06; Cell Number, % of positive control (10 ng/ml AA + compound + Wnt3a): 6.78 % of positive control; Cell Number, Average Total Cell Number (10 ng/ml AA + compound + Wnt3a): 518; Sox17 Expression, % of positive control (10 ng/ml AA + compound + Wnt3a): −2.13 % of positive control; Sox17 Expression, Average Total Intensity (10 ng/ml AA + compound + Wnt3a): −2.37E+06
